Key:
Kuramochi cells RB-KO = experiment: IncuCyte Kuramochi cell proliferation assay, RB-KO; format: cell-based; settings: 72 hours, cell count, batch mean
Procedure: (§1) IncuCyte® assay was used to measure the effect of disclosed compounds on cell proliferation. Fluorescent microscopy images of cells were taken immediately after compound treatment and 72 hours later. Image analysis software was used to obtain cell counts as a function of compound concentration. Kuramochi cells labeled with mApple-H2B were seeded on 384-well assay-ready plates. Plates were placed in an IncuCyte® (Sartorius) and scanned at 0 and 72 hours. IncuCyte® software was used to count the number of fluorescent nuclei in each well. The fold change in cell count from 0 to 72 hours in wells treated with increasing compounds concentrations (10 pts, 1/2 log dilution, 20 µM top concentration) was normalized to DMSO control wells. The normalized cell counts were fit with dose response curves and a GI50 was calculated.

CDK2/Cyclin E1 = CDK2/Cyclin E1 (Homo sapiens, UniProt P24941); experiment: ADP-Glo Luminescent Kinase Assay (CDK2/E1-37C); format: biochemical; settings: 0.18 nM CDK2/Cyclin E1, 100 μM ATP, Histone H1, 37° C.; read-out: ADPGLO (CDK2/E1-37C): IC50
Procedure: Inhibition of CDK2/Cyclin E1 activity by the presence of small molecules was evaluated using ADP-Glo Luminescent Kinase Assay (Promega). Activated CDK2/Cyclin E1 was incubated with its substrate Histone H1 (SignalChem H10-54N) in the kinase reaction buffer (100 μM ATP, 50 mM HEPES pH 7.5, 10 mM MgCl2, 1 mM EDTA, 2 mM DTT, 0.01% Brij35, 0.5 mg/mL BSA). Luminescence was recorded with an Envision plate reader (PerkinElmer).
Dose titrations of inhibitors in 100% DMSO were combined with 0.36 nM CDK2/Cyclin E1 in reaction buffer. The mixtures were incubated for 60 minutes at 37° C. before the addition of ATP and Histone H1 substrate to initiate the kinase reaction. The final conditions were 0.18 nM CDK2/Cyclin E1, 100 μM ATP, and […] Histone H1. The reactions were incubated at 37° C. for 90 minutes before being stopped with the addition of ADP-Glo reagent. This mixture was incubated at room temperature for 60 minutes before Kinase Detection Solution is added to generate luminescence. The stopped reactions were analyzed on an Envision plate reader. The conversion ratios were normalized to yield % activity, plotted against compound concentration, and fit to a four-parameter equation to determine the IC50 for each compound.

Kuramochi cells RB-WT = experiment: IncuCyte Kuramochi cell proliferation assay, RB-WT; format: cell-based; settings: 72 hours, cell count
Procedure: as §1

| Compound | IC50 (CDK2/Cyclin E1) [µM] | IC50 (Kuramochi cells RB-KO) [µM] | IC50 (Kuramochi cells RB-WT) [µM] |
| --- | --- | --- | --- |
| O=C(O)c1c(COC[C@@H]2CN(C(=O)c3cnn(Cc4ccc(F)cc4)c3)CC23CN(C(=O)CC2(C(F)(F)F)CC2)C3)cccc1C1CCC(C(F)(F)F)CC1 (stereo partly drawn) [Compound I-98] | 0.5 to 5 | > 10 | > 10 |
| O=C(O)c1c(COC[C@@H]2CN(C(=O)c3cnn(Cc4ccc(F)cc4)c3)CC23CN(C(=O)C2COC2)C3)cccc1C1CCC(C(F)(F)F)CC1 (stereo partly drawn) [Compound I-99] | > 10 | > 10 | > 10 |
| CC(C)(Oc1c(COC[C@@H]2CN(C(=O)c3cnn(Cc4ccc(F)cc4)c3)CC23CN(C(=O)C2(C(F)(F)F)CC2)C3)cccc1C1CCC(C(F)(F)F)CC1)C(=O)O (stereo partly drawn) [Compound I-108] | 0.5 to 5 | > 10 | > 10 |
| O=C(O)c1ccc(C2CCC(C(F)(F)F)CC2)cc1COC[C@@H]1CN(C(=O)c2cnn(Cc3ccc(F)cc3)c2)CC12CN(C(=O)C1(C(F)(F)F)CC1)C2 (stereo partly drawn) [Compound I-111] | 0.5 to 5 | > 10 | > 10 |
| CC(C)(C(=O)N1CC2(CN(C(=O)c3cnn(Cc4ccc(F)cc4C(F)(F)F)c3)C[C@H]2COCc2cccc(C3CCC(F)(F)CC3)c2C(=O)O)C1)C(F)(F)F [Compound I-127, (S)-2-(4,4-difluorocyclohexyl)-6-(((6-(1-(4-fluoro-2-(trifluoromethyl)benzyl)-1H-pyrazole-4-carbonyl)-2-(3,3,3-trifluoro-2,2-dimethylpropanoyl)-2,6-diazaspiro[3.4]octan-8-yl)methoxy)methyl)benzoic acid] | ≤ 0.5 | > 10 | 0.5 to 5 |
| CC1(C)C[C@@H]1C(=O)N1CC2(CN(C(=O)c3cnn(Cc4ccc(F)cc4)c3)CC2COc2cccc(C3CCC(F)(F)CC3)c2C(=O)O)C1 (stereo partly drawn) [Compound I-128, 2-(4,4-difluorocyclohexyl)-6-((2-((S)-2,2-dimethylcyclopropane-1-carbonyl)-6-(1-(4-fluorobenzyl)-1H-pyrazole-4-carbonyl)-2,6-diazaspiro[3.4]octan-8-yl)methoxy)benzoic acid] | ≤ 0.5 | > 10 | > 10 |
| CC1(C)C[C@@H]1C(=O)N1CC2(CN(C(=O)c3cnn(Cc4ccc(F)cc4)c3)CC2COc2cccc(CC3CCC(F)(F)CC3)c2C(=O)O)C1 (stereo partly drawn) [Compound I-129] | ≤ 0.5 | > 10 | > 10 |
| CC1(C)C[C@@H]1C(=O)N1CC2(CN(C(=O)c3cnn(Cc4ccc(F)cc4)c3)CC2COc2cccc(OC3CCC(F)(F)CC3)c2C(=O)O)C1 (stereo partly drawn) [Compound I-130, 2-((4,4-difluorocyclohexyl)oxy)-6-((2-((S)-2,2-dimethylcyclopropane-1-carbonyl)-6-(1-(4-fluorobenzyl)-1H-pyrazole-4-carbonyl)-2,6-diazaspiro[3.4]octan-8-yl)methoxy)benzoic acid] | ≤ 0.5 | > 10 | > 10 |
| CC(C)(C(=O)N1CC2(CN(C(=O)c3cnn(Cc4ccc(F)cc4)c3)C[C@H]2COCc2cccc(N3CCC(C(F)(F)F)CC3)c2C(=O)O)C1)C(F)(F)F [I′-19, (S)-2-(((6-(1-(4-fluorobenzyl)-1H-pyrazole-4-carbonyl)-2-(3,3,3-trifluoro-2,2-dimethylpropanoyl)-2,6-diazaspiro[3.4]octan-8-yl)methoxy)methyl)-6-(4-(trifluoromethyl)piperidin-1-yl)benzoic acid] | ≤ 0.5 | > 10 | 0.5 to 5 |
| CC(C)(C(=O)N1CC2(CN(C(=O)c3cnn(Cc4ccc(F)cc4)c3)C[C@H]2COCc2c(C(F)(F)F)ccc(C3CCC(F)(F)CC3)c2C(=O)O)C1)C(F)(F)F [I′-20] | ≤ 0.5 | > 10 | 5 to 10 |
| CC(C)(C(=O)N1CC2(CN(C(=O)c3cnn(Cc4ccc(F)cc4)c3)C[C@H]2COCc2ccc(F)c(C3CCC(F)(F)CC3)c2C(=O)O)C1)C(F)(F)F [I′-21] | ≤ 0.5 | > 10 | > 10 |
| CC(C)(C(=O)N1CC2(CN(C(=O)c3cnn(Cc4ccc(F)cc4)c3)C[C@H]2COCc2cccc(C3CCC(F)(F)CC3)c2C(=O)NCCN2CCOCC2)C1)C(F)(F)F [I′-22] | ≤ 0.5 | > 10 | > 10 |

The next lines start with results.

| IC50 (CDK2/Cyclin E1) [µM] | Compound | IC50 (Kuramochi cells RB-KO) [µM] | IC50 (Kuramochi cells RB-WT) [µM] |
| --- | --- | --- | --- |
| ≤ 0.5 | CC(C(=O)N1CC2(CN(C(=O)c3cnn(Cc4ccc(F)cc4)c3)C[C@H]2COCc2cccc(C3CCC(C(F)(F)F)CC3)c2C(=O)O)C1)C(F)(F)F (stereo partly drawn) [Compound I-97, 2-((((8S)-6-(1-(4-fluorobenzyl)-1H-pyrazole-4-carbonyl)-2-(3,3,3-trifluoro-2-methylpropanoyl)-2,6-diazaspiro[3.4]octan-8-yl)methoxy)methyl)-6-(4-(trifluoromethyl)cyclohexyl)benzoic acid] | > 10 | 5 to 10 |
| ≤ 0.5 | CC(C(=O)N1CC2(CN(C(=O)c3cnn(Cc4ccc(F)cc4)c3)C[C@H]2COCc2cccc(C3CCC(C(F)(F)F)CC3)c2C(=O)O)C1)(C(F)(F)F)C(F)(F)F (stereo partly drawn) [Compound I-100, (S)-2-(((6-(1-(4-fluorobenzyl)-1H-pyrazole-4-carbonyl)-2-(3,3,3-trifluoro-2-methyl-2-(trifluoromethyl)propanoyl)-2,6-diazaspiro[3.4]octan-8-yl)methoxy)methyl)-6-(4-(trifluoromethyl)cyclohexyl)benzoic acid] | > 10 | > 10 |
| ≤ 0.5 | CC(C)(C(=O)N1CC2(CN(C(=O)c3cnn(Cc4ccc(F)cc4)c3)C[C@H]2COCc2cccc(C3CCC(F)(F)CC3)c2C(=O)O)C1)C(F)(F)F [Compound I-101, (S)-2-(4,4-difluorocyclohexyl)-6-(((6-(1-(4-fluorobenzyl)-1H-pyrazole-4-carbonyl)-2-(3,3,3-trifluoro-2,2-dimethylpropanoyl)-2,6-diazaspiro[3.4]octan-8-yl)methoxy)methyl)benzoic acid] | > 10 | 0.5 to 5 |
| ≤ 0.5 | O=C(O)Cc1c(COC[C@@H]2CN(C(=O)c3cnn(Cc4ccc(F)cc4)c3)CC23CN(C(=O)C2(C(F)(F)F)CC2)C3)cccc1C1CCC(C(F)(F)F)CC1 (stereo partly drawn) [Compound I-102, (S)-2-(2-(((6-(1-(4-fluorobenzyl)-1H-pyrazole-4-carbonyl)-2-(1-(trifluoromethyl)cyclopropane-1-carbonyl)-2,6-diazaspiro[3.4]octan-8-yl)methoxy)methyl)-6-(4-(trifluoromethyl)cyclohexyl)phenyl)acetic acid] | > 10 | 0.5 to 5 |
| ≤ 0.5 | O=C(O)COc1c(COC[C@@H]2CN(C(=O)c3cnn(Cc4ccc(F)cc4)c3)CC23CN(C(=O)C2(C(F)(F)F)CC2)C3)cccc1C1CCC(C(F)(F)F)CC1 (stereo partly drawn) [Compound I-109, (S)-2-(2-(((6-(1-(4-fluorobenzyl)-1H-pyrazole-4-carbonyl)-2-(1-(trifluoromethyl)cyclopropane-1-carbonyl)-2,6-diazaspiro[3.4]octan-8-yl)methoxy)methyl)-6-(4-(trifluoromethyl)cyclohexyl)phenoxy)acetic acid] | > 10 | > 10 |
| ≤ 0.5 | O=C(O)c1ccccc1Cn1cc(C(=O)N2CC(COCc3cccc(C4CCC(C(F)(F)F)CC4)c3C(F)(F)F)C3(C2)CN(C(=O)C2(C(F)(F)F)CC2)C3)cn1 (stereo not drawn) [Compound I-114] | > 10 | > 10 |
| ≤ 0.5 | CC1(C)C[C@@H]1C(=O)N1CC2(CN(C(=O)c3cnn(Cc4ccc(F)cc4C(F)(F)F)c3)C[C@H]2COCc2cccc(C3CCC(F)(F)CC3)c2C(=O)O)C1 [Compound I-118, 2-(4,4-difluorocyclohexyl)-6-(((2-((S)-2,2-dimethylcyclopropane-1-carbonyl)-6-(1-(4-fluoro-2-(trifluoromethyl)benzyl)-1H-pyrazole-4-carbonyl)-2,6-diazaspiro[3.4]octan-8-yl)methoxy)methyl)benzoic acid] | > 10 | 5 to 10 |
| ≤ 0.5 | CC1(C)C[C@@H]1C(=O)N1CC2(CN(C(=O)c3cnn(Cc4ccc(F)cc4)c3)C[C@H]2COCc2c(F)ccc(C3CCC(F)(F)CC3)c2C(=O)O)C1 [Compound I-119, 6-(4,4-difluorocyclohexyl)-2-(((2-((S)-2,2-dimethylcyclopropane-1-carbonyl)-6-(1-(4-fluorobenzyl)-1H-pyrazole-4-carbonyl)-2,6-diazaspiro[3.4]octan-8-yl)methoxy)methyl)-3-fluorobenzoic acid] | > 10 | 0.5 to 5 |

— patent US20260034123A1 (Cedilla Therapeutics, Inc., priority 2022, published 2026)
